Source: article PMC6210068 (ACS Omega, 2018)
Each block holds one compound with its values, some of them ahead of it.

Legend:
[1] = target: T1, rat σ2 receptor (Rattus norvegicus, UniProt Q5U3Y7); assay: PDSP binding, σ2 receptor
T1 sequence (Q5U3Y7 1-176): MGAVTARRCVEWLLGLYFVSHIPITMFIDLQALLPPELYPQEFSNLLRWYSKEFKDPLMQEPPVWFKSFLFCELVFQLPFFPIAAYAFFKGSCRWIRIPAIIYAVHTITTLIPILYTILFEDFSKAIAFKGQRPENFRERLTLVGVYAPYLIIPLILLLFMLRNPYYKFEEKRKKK

[2] = target: human 5HT1A serotonin receptor (Homo sapiens, UniProt P08908); assay: PDSP off-target binding, 5HT1A
[3] = target: T2, DOR (Homo sapiens, UniProt P41143); assay: Radioligand binding at DOR
[4] = target: T3, hDAT (Homo sapiens, UniProt Q01959); conditions: read-out: Ki, inhibition of binding of [3H]103 at hDAT; cited from earlier work
[5] = target: β3 adrenergic receptor (Homo sapiens, UniProt P13945); assay: PDSP off-target binding, β3 adrenergic
[6] = target: rat kidney TSPO (Rattus norvegicus, UniProt P16257); assay: Radioligand binding at TSPO; conditions: for Ki: TSPO, rat TSPO, [3H]PK11195
[7] = target: T3, hDAT; assay: hDAT binding modulation, [3H]mazindol 119
[8] = target: T4, mA1AR (Mus musculus, UniProt Q60612); assay: mA1AR binding; conditions: read-out: mA1AR binding, % inhibition at 10 μM
T4 sequence (Q60612 1-326): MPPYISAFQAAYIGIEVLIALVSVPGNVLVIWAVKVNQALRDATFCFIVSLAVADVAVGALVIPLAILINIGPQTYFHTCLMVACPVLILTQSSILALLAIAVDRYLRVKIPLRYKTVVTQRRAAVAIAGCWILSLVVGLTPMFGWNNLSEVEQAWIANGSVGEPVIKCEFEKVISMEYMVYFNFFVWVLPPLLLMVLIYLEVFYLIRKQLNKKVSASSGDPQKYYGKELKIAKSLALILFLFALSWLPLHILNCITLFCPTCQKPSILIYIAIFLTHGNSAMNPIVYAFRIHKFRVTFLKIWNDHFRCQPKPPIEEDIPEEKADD

[9] = target: T5, KOR (Homo sapiens, UniProt P41145); assay: biochemical; format: binding; conditions: for Ki: KOR, [3H]U69593, mean ± SEM, N = 2–4
[10] = target: T6, MOR (Homo sapiens, UniProt P35372); assay: biochemical; format: binding
[11] = target: T3, hDAT; assay: [3H]dopamine uptake inhibition at hDAT; format: cell-based
[12] = target: CYP2C19 (Homo sapiens, UniProt P33261); assay: Cytochrome P450 inhibition in human microsomes, 2C19; format: in vitro ADME; conditions: CYP450 2C19 IC50, human microsomes
[13] = target: T2, DOR; assay: β-arrestin-recruitment TANGO assay at DOR; format: cell-based; conditions: 10 μM
[14] = target: T7, hA3AR (Homo sapiens, UniProt P0DMS8); assay: hA3AR-mediated inhibition of cAMP formation; format: cell-based; conditions: read-out: maximal efficacy, hA3AR-mediated inhibition of cAMP formation
T7 sequence (P0DMS8 1-318): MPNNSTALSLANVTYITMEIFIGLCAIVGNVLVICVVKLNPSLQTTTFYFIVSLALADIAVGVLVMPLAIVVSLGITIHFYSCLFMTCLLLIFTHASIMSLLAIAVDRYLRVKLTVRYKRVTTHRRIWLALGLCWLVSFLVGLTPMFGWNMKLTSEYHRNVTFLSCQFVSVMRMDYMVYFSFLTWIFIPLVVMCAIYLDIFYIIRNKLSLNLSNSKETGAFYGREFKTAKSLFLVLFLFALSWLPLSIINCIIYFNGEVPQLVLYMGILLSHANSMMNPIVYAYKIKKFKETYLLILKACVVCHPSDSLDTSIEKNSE

[15] = target: T8, hNET (Homo sapiens, UniProt P23975); assay: hNET binding, [125I]118
[16] = target: CYP1A2 (Homo sapiens, UniProt P05177); assay: Cytochrome P450 inhibition in human microsomes, 1A2; format: in vitro ADME; conditions: CYP450 1A2 IC50, human microsomes
[17] = target: CYP2C9 (Homo sapiens, UniProt P11712); assay: Cytochrome P450 inhibition in human microsomes, 2C9; format: in vitro ADME; conditions: CYP450 2C9 IC50, human microsomes
[18] = target: mA2AAR (Mus musculus, UniProt Q60613); assay: mA2AAR binding; conditions: read-out: mA2AAR binding, % inhibition at 10 μM
[19] = target: hNOP (Homo sapiens, UniProt P41146); assay: Radioligand binding at NOP
[20] = target: T5, KOR; assay: β-arrestin-recruitment TANGO assay at KOR; format: cell-based; conditions: 10 μM; vs naloxone 121 = 100% inhibition; agonist 109 (3 nM)
[21] = CACO-2 cell permeability; format: in vitro ADME; conditions: human, Caco-2, pH 7.4
[22] = test system: CACO-2 cells; assay: CACO-2 cell permeability; format: in vitro ADME; conditions: human, Caco-2, 120 min, 10 µM, pH 7.4
[23] = target: CYP3A4 (Homo sapiens, UniProt P08684); assay: Cytochrome P450 inhibition in human microsomes, 3A4; format: in vitro ADME; conditions: CYP450 3A4 IC50, human microsomes
[24] = Pharmacokinetics after intravenous and oral administration; format: in vivo, male Sprague Dawley rats
[25] = target: T3, hDAT; assay: Radioligand binding at DAT; conditions: for DAT, inhibition, % of control at 10 μM: [3H]WIN35428, negative = enhanced radioligand binding
[26] = target: T7, hA3AR; assay: A3AR binding; conditions: for reduction of hA3AR binding affinity by 7-deaza modification: 28 vs 24, 54 vs 49, 55 vs 51
[27] = target: T5, KOR; format: cell-based; conditions: antagonism of 1 μM U69593 98
[28] = target: T6, MOR; assay: β-arrestin-recruitment TANGO assay at MOR; format: cell-based; conditions: 10 μM
[29] = target: hSERT (Homo sapiens, UniProt P31645); assay: hSERT binding and serotonin uptake
[30] = target: CYP2D6 (Homo sapiens, UniProt P10635); assay: Cytochrome P450 inhibition in human microsomes, 2D6; format: in vitro ADME; conditions: CYP450 2D6 IC50, human microsomes
[31] = Human plasma stability; format: in vitro ADME; conditions: after 2 h
[32] = target: hERG (Homo sapiens, UniProt Q12809); assay: hERG inhibition, fluorescence polarization assay; format: binding
[33] = target: T8, hNET; conditions: read-out: Ki, inhibition of binding of [3H]104 at NET; cited from earlier work
[34] = target: T9, hA1AR (Homo sapiens, UniProt P30542); assay: hA1AR binding
T9 sequence (P30542 1-326): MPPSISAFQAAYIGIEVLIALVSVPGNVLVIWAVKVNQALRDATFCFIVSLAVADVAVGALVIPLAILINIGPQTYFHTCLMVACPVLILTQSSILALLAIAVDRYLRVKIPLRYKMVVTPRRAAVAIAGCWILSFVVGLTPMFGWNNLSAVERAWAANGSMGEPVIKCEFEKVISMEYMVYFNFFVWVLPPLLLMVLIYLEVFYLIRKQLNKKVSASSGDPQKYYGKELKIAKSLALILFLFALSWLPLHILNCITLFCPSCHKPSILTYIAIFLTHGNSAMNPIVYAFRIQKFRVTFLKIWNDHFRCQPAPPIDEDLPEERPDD

[35] = target: muscarinic M1 receptor (Homo sapiens, UniProt P11229); assay: PDSP off-target binding, muscarinic M1
[36] = target: 5HT2B serotonin receptor (Homo sapiens, UniProt P41595); assay: PDSP off-target binding, 5HT2B
[37] = target: rat brain benzodiazepine receptor; assay: PDSP binding, rat brain benzodiazepine receptor; conditions: read-out: rat brain benzodiazepine receptor, Ki
[38] = target: 5HT2A serotonin receptor (Homo sapiens, UniProt P28223); assay: PDSP off-target binding, 5HT2A
[39] = male, Sprague-Dawley, rat, plasma, po

T6 sequence (P35372 whole entry): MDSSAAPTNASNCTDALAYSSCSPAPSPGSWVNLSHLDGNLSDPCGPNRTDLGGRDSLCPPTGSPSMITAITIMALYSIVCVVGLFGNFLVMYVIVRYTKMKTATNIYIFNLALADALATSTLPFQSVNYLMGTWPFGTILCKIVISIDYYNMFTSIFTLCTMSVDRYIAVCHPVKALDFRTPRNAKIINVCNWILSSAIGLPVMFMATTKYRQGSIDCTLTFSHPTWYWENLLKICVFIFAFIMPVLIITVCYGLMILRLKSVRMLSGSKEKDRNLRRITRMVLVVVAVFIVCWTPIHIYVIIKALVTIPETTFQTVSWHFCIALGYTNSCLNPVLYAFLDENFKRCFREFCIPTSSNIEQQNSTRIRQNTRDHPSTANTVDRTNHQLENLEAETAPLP
T2 sequence (P41143 whole entry): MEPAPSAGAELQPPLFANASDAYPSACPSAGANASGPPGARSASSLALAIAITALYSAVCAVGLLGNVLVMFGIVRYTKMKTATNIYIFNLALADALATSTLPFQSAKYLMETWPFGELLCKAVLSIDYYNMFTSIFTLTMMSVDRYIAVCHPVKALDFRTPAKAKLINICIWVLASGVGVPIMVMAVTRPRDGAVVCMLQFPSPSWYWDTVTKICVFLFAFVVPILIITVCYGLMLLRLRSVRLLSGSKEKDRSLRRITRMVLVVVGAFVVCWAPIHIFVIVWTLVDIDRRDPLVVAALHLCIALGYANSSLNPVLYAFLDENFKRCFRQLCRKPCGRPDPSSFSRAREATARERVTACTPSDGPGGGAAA
T3 sequence (Q01959 whole entry): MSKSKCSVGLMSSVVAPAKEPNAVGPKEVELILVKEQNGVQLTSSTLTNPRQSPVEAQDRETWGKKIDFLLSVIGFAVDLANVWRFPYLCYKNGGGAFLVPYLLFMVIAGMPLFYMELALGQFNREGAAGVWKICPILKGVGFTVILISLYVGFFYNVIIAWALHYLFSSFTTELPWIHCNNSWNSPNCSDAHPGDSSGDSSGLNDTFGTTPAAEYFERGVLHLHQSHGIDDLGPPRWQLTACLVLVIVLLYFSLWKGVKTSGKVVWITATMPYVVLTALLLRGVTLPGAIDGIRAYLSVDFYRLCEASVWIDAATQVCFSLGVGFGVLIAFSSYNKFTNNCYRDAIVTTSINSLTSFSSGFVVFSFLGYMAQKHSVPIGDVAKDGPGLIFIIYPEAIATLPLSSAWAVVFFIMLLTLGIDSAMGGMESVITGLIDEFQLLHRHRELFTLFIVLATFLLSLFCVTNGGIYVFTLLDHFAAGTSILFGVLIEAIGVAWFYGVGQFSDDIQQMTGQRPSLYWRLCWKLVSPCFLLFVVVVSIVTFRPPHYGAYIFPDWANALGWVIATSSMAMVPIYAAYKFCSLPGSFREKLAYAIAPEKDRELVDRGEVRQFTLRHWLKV
Chain of rat kidney TSPO (P16257 whole entry): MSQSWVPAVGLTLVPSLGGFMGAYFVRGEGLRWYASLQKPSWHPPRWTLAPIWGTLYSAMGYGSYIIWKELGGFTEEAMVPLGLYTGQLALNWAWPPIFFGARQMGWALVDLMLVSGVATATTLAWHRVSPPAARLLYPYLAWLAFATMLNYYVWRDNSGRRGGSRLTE
T5 sequence (P41145 whole entry): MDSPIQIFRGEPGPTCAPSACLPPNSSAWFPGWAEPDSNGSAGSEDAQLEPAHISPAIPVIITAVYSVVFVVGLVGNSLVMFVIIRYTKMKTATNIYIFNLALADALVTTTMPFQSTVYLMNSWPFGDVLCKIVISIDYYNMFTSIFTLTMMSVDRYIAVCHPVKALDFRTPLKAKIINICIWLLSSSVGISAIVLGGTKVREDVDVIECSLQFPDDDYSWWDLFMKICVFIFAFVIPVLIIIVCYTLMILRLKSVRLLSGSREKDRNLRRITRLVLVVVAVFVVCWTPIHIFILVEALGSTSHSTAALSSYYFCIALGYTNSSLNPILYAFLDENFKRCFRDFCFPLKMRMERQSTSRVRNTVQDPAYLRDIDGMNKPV
T8 sequence (P23975 whole entry): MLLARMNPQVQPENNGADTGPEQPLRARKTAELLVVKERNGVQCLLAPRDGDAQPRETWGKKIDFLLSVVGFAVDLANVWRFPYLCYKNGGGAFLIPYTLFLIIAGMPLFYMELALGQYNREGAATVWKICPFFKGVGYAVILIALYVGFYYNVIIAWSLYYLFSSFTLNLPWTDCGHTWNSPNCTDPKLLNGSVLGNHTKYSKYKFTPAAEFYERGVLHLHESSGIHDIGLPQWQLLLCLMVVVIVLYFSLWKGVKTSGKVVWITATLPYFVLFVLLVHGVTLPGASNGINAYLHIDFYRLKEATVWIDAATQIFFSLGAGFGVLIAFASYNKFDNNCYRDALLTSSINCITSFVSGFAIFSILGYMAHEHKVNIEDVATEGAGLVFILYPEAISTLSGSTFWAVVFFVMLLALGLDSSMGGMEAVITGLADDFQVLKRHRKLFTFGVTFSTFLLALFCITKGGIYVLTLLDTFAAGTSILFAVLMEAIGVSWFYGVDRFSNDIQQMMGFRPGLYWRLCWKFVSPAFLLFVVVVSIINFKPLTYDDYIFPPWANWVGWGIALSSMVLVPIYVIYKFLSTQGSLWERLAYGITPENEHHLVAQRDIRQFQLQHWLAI
Chain of 5HT2A serotonin receptor (P28223 whole entry): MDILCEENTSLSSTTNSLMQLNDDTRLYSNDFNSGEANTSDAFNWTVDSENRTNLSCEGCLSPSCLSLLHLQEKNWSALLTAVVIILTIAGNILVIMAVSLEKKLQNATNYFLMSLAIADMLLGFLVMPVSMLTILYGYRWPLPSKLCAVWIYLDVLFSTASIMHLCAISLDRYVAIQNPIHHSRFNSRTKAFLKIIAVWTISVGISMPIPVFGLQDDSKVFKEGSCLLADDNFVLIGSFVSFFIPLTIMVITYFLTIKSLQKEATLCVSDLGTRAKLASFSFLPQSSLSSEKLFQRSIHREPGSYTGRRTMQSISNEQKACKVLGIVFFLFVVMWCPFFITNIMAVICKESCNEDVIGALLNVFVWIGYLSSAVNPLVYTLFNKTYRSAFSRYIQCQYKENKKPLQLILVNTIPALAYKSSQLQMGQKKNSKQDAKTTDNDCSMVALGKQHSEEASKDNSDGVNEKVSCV
Chain of hERG (Q12809 whole entry): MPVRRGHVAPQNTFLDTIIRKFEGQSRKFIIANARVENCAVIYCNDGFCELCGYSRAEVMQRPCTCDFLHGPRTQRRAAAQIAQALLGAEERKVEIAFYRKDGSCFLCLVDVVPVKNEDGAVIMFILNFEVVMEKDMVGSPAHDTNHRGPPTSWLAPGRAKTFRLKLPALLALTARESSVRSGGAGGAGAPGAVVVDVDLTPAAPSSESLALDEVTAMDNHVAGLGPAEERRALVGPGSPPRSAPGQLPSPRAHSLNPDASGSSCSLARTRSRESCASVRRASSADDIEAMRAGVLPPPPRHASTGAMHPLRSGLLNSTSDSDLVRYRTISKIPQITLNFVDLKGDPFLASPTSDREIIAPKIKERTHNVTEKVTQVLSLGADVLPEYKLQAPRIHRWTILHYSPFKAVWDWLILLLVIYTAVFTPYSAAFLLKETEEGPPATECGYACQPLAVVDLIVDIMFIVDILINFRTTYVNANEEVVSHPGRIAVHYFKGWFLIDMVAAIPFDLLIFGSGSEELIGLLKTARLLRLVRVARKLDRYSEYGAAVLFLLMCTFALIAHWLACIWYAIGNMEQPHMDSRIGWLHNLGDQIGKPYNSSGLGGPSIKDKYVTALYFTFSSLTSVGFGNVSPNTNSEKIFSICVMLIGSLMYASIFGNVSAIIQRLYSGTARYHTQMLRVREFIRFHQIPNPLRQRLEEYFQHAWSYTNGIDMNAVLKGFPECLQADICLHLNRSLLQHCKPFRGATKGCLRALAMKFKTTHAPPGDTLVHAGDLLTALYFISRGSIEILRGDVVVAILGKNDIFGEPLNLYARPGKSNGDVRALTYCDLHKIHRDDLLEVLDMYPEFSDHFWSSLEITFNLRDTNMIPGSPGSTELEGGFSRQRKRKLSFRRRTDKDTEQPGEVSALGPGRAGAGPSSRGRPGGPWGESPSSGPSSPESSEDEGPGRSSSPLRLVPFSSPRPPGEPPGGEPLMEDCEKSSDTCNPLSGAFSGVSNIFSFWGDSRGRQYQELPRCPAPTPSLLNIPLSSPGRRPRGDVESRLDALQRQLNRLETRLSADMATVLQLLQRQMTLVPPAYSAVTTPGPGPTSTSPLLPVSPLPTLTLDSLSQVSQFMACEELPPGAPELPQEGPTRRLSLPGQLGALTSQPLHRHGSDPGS
Chain of β3 adrenergic receptor (P13945 whole entry): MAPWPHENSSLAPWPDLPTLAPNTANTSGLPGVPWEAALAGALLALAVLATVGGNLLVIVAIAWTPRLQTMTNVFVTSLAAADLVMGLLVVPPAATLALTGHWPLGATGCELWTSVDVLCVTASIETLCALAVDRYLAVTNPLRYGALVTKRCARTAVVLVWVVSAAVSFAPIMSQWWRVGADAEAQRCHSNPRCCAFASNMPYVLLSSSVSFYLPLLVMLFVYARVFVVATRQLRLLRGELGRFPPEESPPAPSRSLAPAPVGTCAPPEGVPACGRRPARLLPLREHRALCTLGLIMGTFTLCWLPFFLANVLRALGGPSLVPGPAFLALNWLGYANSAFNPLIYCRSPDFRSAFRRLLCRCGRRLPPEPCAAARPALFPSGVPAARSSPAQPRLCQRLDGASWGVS
Chain of hNOP (P41146 whole entry): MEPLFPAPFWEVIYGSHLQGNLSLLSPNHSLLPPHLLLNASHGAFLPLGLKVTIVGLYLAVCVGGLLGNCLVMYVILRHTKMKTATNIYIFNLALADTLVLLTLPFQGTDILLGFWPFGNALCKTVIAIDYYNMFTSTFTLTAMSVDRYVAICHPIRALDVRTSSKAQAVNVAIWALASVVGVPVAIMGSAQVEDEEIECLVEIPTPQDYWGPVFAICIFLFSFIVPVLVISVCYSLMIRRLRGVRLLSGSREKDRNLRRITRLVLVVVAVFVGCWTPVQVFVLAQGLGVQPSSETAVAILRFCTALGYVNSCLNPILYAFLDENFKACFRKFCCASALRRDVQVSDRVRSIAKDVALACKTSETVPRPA

- Ki [1]: 2.51 µM
- Ki [2]: 6.3 µM
- Ki [5]: 2.5 µM
Compound: CNC(=O)[C@@]12C[C@@H]1[C@@H](n1cnc3c(NC4CC4c4ccccc4)nc(C#Cc4ccccc4)nc31)[C@H](O)[C@@H]2O (mixture of isomers) [compound 10]
- DOR, inhibition of radioligand binding at 10 μM (class) ([3]; Table 1): ^e (30–50% inhibition of radioligand binding at 10 μM)
- Ki [4]: 2.31 µM
- TSPO, inhibition of radioligand binding at 10 μM (class) ([6]; Table 1): ^f (<30% inhibition of radioligand binding at 10 μM)

- EC50 [7]: 2.16 ± 0.55 µM
- hDAT [3H]119 binding, % control binding (maximal) [7]: 267 ± 17%
- inhibition at 10 µM [8]: 32%
- ligand efficiency ([9]; KOR binding): 0.25
- Ki [9]: 0.042 ± 0.001 µM
- preference for KOR in comparison to DOR ([9]; ratio of Ki): 19 fold
- preference for KOR in comparison to MOR ([9]; ratio of Ki): 15 fold
- preference for KOR in comparison to TSPO ([9]; ratio of Ki): ~20 fold
- Ki [10]: 0.637 ± 0.367 µM
- IC50 [11]: > 9.8 µM
- IC50 [12]: ≥ 10 µM
- Ki [3]: 0.786 ± 0.21 µM
- DOR Antag (%) ([13]; vs naloxone 121 = 100% inhibition): 85.4%
- DOR Ag (%) ([13]; vs standard agonist = 100%): –0.6%
- Emax at 10 µM [14]: 0.59 ± 6.62%
- EC50 [15]: > 10 µM
- IC50 [16]: ≥ 10 µM
- IC50 [17]: ≥ 10 µM
- inhibition at 10 µM [18]: 10%
- Ki [19]: 3.71 ± 0.78 µM
- KOR Antag (%) [20]: 99.6%
- Papp A→B at 120 min, 10 µM [21]: 1.42 ×10⁻⁶ cm/s
- Efflux Ratio [22]: 15.6
- IC50 [23]: ≥ 10 µM
- MRT [24, 39]: 2.3 to 2.8 h
- half-life [24, 39]: 1.6 to 2.2 h
- oral bioavailability F ([24]; p.o. 1 mg/kg, 1 mg/kg): 58%
- oral bioavailability F ([24]; p.o. 10 mg/kg, 10 mg/kg): 60%
- EC50 [25]: > 1 µM
- DAT, inhibition, % of control at 10 μM [25]: –172 ± 57 (3) %
- Ki [26]: 0.448 ± 0.013 µM
- reduction of hA3AR binding affinity by 7-deaza modification [26]: 31 fold
- βarrestin2 recruitment, Imax (% 120) [27]: 92 ± 1 % 120
- MOR Antag (%) ([28]; vs naloxone 121 = 100% inhibition, agonist 99 (300 nM)): 96.4%
- MOR Ag (%) ([28]; vs standard agonist = 100%): 0.4%
- hSERT binding enhancement / serotonin uptake inhibition potency [29]: > 10 µM
- IC50 [30]: ≥ 10 µM
- stability in human plasma, remaining [31]: 98%
- Ki [6]: 0.869 ± 0.16 µM
Compound: CCOC(=O)[C@@]12C[C@@H]1[C@@H](n1ccc3c(NC)nc(C#Cc4ccc(Cl)s4)nc31)[C@H](O)[C@@H]2O [compound 28, Ethyl(1S,2R,3S,4R,5S)-4-(2-((5-chlorothiophen-2-yl)ethynyl)-4-(methylamino)-7H-pyrrolo[2,3-d]pyrimidin-7-yl)-2,3-dihydroxybicyclo[3.1.0]hexane-1-carboxylate]
- IC50 [32]: > 30 µM

- DAT, inhibition, % of control at 10 μM [25]: –154%
Compound: CCNc1nc(C#Cc2ccccc2)nc2c1ncn2[C@H]1[C@H](O)[C@H](O)[C@@H]2C[C@@H]21 [compound 50]
- DOR, inhibition of radioligand binding at 10 μM (class) ([3]; Table 4): ^g (<30% inhibition of radioligand binding at 10 μM)
- Ki [33]: 8.66 µM
- TSPO, inhibition of radioligand binding at 10 μM (class) ([6]; Table 4): ^f (30–50% inhibition of radioligand binding at 10 μM)

- Ki [9]: 1.37 ± 0.18 µM
- Ki [34]: 1.3 µM
- Ki [10]: 4.02 ± 0.89 µM
- Ki [3]: 3.66 ± 1.33 µM
- Ki [35]: 6.97 µM
- Ki [26]: 0.217 ± 0.065 µM
- reduction of hA3AR binding affinity by 7-deaza modification [26]: 11 fold
- Ki [6]: 2.12 ± 0.23 µM
- Ki [36]: 3.06 ± 0.17 µM
Compound: O[C@@H]1[C@H](O)[C@@H]2C[C@@H]2[C@H]1n1ccc2c(NCCc3ccccc3)nc(C#Cc3ccccc3)nc21 [compound 55, (1R,2R,3S,4R,5S)-4-(4-(Phenethylamino)-2-(phenylethynyl)-7H-pyrrolo[2,3-d]pyrimidin-7-yl)bicyclo[3.1.0]hexane-2,3-diol]

- Ki [9]: 3.02 ± 0.09 µM
- Ki [10]: > 10 µM
- Ki [1]: 6.92 µM
- Ki [3]: > 10 µM
- Ki [26]: 2.44 ± 0.43 µM
- Ki [37]: 0.118 µM
- Ki [38]: 4.34 ± 1.74 µM
Compound: O[C@@H]1[C@H](O)[C@@H]2C[C@@H]2[C@H]1n1ccc2c(NC(C3CC3)C3CC3)nc(C#Cc3ccc(Br)s3)nc21 [compound 57, (1R,2R,3S,4R,5S)-4-(2-((5-Bromothiophen-2-yl)ethynyl)-4-((dicyclopropylmethyl)amino)-7H-pyrrolo[2,3-d]pyrimidin-7-yl)bicyclo[3.1.0]hexane-2,3-diol]
